Assays:
HepG2.2.15 cells = experiment: HepG2.2.15 cytotoxicity (intracellular ATP, Cell-Titer Glo; microscopy); type: cell-based, human hepatoblastoma HepG2 cells; details: Trial 3, SIRNA-NP μM: 0.0025, 0.00079, 0.00025, 7.9E−05, 2.5E−05, 0
Method: (§1) Untreated positive control samples (0.5% DMSO in media) were included on each plate in multiple wells. Following a 6 day-incubation, media was removed from treated cells for use in an HBsAg chemiluminescence immunoassay (CLIA) (Autobio Diagnostics, Cat No. CL0310-2). An HBsAg standard curve was generated to verify that the levels of HBsAg quantification were within the detection limits of the assay. The remaining inhibitor-treated cells were assessed for cytotoxicity by determination of the intracellular adenosine triphosphate (ATP) using a Cell-Titer Glo reagent (Promega) as per manufacturers instructions and by microscopic analysis of the cells throughout the duration of inhibitor treatment. Cell viability was calculated as a percentage of the untreated positive control wells.

[1] = test system: HBsAg secretion in HepG2.2.15 cells; experiment: HepG2.2.15 cell culture system, HBsAg quantitation by CLIA, MacSynergy II; type: cell-based, human hepatoblastoma HepG2 cells; details: for Additive % Inhibition versus negative control: Trial 3, n = 4, SIRNA-NP μM: 0.0025, 0.00079, 0.00025, 7.9E−05, 2.5E−05, 0
Method: In vitro combination studies were conducted using the method of Prichard and Shipman (Prichard M N, and Shipman C Jr., Antiviral Research, 1990, 14 (4-5), 181-205; and Prichard M N, et. al., MacSynergy II). The HepG2.2.15 cell culture system is a cell line derived from human hepatoblastoma HepG2 cells that have been stably transfected with the adw2-subtype HBV genome as previously explained in Sells et al. (Proc. Natl. Acad. Sci. U. S. A, 1987. Vol 84:1005-1009). HepG2.2.15 cells secrete Dane-like viral particles, produce HBV DNA, and also produce the viral proteins, hepatitis B e antigen (HBeAg) and hepatitis B surface antigen (HBsAg).
To test the compound combinations, HepG2.2.15 (30,000 cells/well) were plated in 96 well tissue-culture treated microtiter plates in RPMI+L-Glutamine medium supplemented with 1% penicillin-streptomycin, 20 μg/mL geneticin (G418), 10% fetal bovine serum, and incubated in a humidified incubator at 37° C. and 5% CO2 overnight. […] […] The microtiter cell plates were incubated for a duration of 6 days in a humidified incubator at 37° C. and 5% CO2.
as §1
The plates were read using an EnVision multimode plate reader (PerkinElmer Model 2104). […] The RLU data from the single compound treated cells were analyzed using XL-Fit module in Microsoft Excel to determine EC50 values using a 4-parameter curve fitting algorithm.

hepatitis B virus (HBV) [2] = experiment: Mouse model of HBV (AAV1.2 tail vein injection), serum HBsAg enzyme immunoassay; type: in vivo, C57/B16 mice; details: Compound 20 3.0 mg/kg oral twice daily Days 0-28, HBV siRNA (LNP) 0.3 mg/kg IV Day 0, n=5 (n=4 vehicle + siRNA)
Method: (§2) This viral vector contains a 1.2-fold overlength copy of the HBV genome and expresses HBV surface antigen (HBsAg) amongst other HBV products. Serum HBsAg expression in mice was monitored using an enzyme immunoassay. Animals were sorted (randomized) into groups based on serum HBsAg levels such that a) all animals were confirmed to express HBsAg and b) HBsAg group means were similar to each other prior to initiation of treatments.
Animals were treated with Compound 20 as follows: Starting on Day 0, a 3.0 mg/kg dosage of Compound 20 was administered orally to animals on a twice-daily frequency for a total of 56 doses between Days 0 and 28. Compound 20 was dissolved in a co-solvent formation for administration. Negative control animals were administered either the co-solvent formulation alone, or were not treated with any test article. Animals were treated with lipid nanoparticle (LNP)-encapsulated HBV-targeting siRNAs as follows: On Day 0, an amount of test article equivalent to 0.3 mg/kg siRNA was administered intravenously. The HBsAg expression levels for each treatment were compared against the Day 0 (pre-dose) values for that group.
The effect of these treatments was determined by collecting blood on Days 0 (pre-treatment), 7, 14, and 28 and analyzing it for serum HBsAg content.

hepatitis B virus (HBV) [3] = experiment: Mouse model of HBV (pAAV/HBV1.2 hydrodynamic injection), serum HBsAg enzyme immunoassay; type: in vivo, C3H/HeN mice; details: HBV siRNA 1 mg/kg IV Days 0, 7, 14, poly(I:C) 20 μg HDI Day 0, mean ± SEM
Source text: A mouse model of hepatitis B virus (HBV) was used to assess the anti-HBV effects of an immune stimulant and HBV-targeting siRNAs, both as independent treatments and in combination with each other.
as §2, with “This plasmid carries” for “This viral vector contains”, “of a” for “of the”
Animals were treated with immune stimulant as follows: On Day 0, 20 micrograms of high molecular weight polyinosinic:polycytidylic acid (poly(I:C)) was administered via HDI. Animals were treated with lipid nanoparticle (LNP)-encapsulated HBV-targeting siRNAs as follows: On each of Days 0, 7 & 14, an amount of test article equivalent to 1 mg/kg siRNA was administered intravenously. A negative control group was included as the HBsAg expression level is not completely stable in this mouse model of HBV; the absolute concentration of serum HBsAg generally declines over time in individual animals.
The effect of the treatments was determined by collecting a small amount of blood on Days 0 (pre-treatment), 3, 7, 14 & 21 and analyzing it for serum HBsAg content. Samples were diluted as appropriate to generate values within the assay range of quantitation where possible. Individual values falling below the lower limit of quantitation (LLOQ) were set as one-half the LLOQ.

COCCCOc1cc2c(cc1OC)-c1cc(=O)c(C(=O)O)cn1[C@H](C(C)C)C2 [Compound 5]
Avg % Cell Viability vs control (HepG2.2.15 cells; Compound 5 0.0001 μM): 128%
Avg % Cell Viability vs control (HepG2.2.15 cells; Compound 5 0.000316 μM): 131%
Avg % Cell Viability vs control (HepG2.2.15 cells; Compound 5 0.001 μM): 141%
Avg % Cell Viability vs control (HepG2.2.15 cells; Compound 5 0.00316 μM): 127%
Avg % Cell Viability vs control (HepG2.2.15 cells; Compound 5 0.1 μM): 99%
Avg % Cell Viability vs control (HepG2.2.15 cells; Compound 5 1.0E−05 μM): 140%
Avg % Cell Viability vs control (HepG2.2.15 cells; Compound 5 1.00E−06 μM): 131%
Avg % Cell Viability vs control (HepG2.2.15 cells; Compound 5 3.16E−06 μM): 127%
Avg % Cell Viability vs control (HepG2.2.15 cells; Compound 5 3.17E−05 μM): 131%
EC50 ([1]; HBsAg by CLIA, trial by row: r8 1, r9 2, r10 3, read-out: Compound 5 EC50): 2 nM
Additive % Inhibition versus negative control ([1]; Compound 5 0.0001 μM): 69.99%
Additive % Inhibition versus negative control ([1]; Compound 5 0.000316 μM): 82.39%
Additive % Inhibition versus negative control ([1]; Compound 5 0.001 μM): 89.01%
Additive % Inhibition versus negative control ([1]; Compound 5 0.00316 μM): 90.26%
Additive % Inhibition versus negative control ([1]; Compound 5 0.1 μM): 86.26%
Additive % Inhibition versus negative control ([1]; Compound 5 1.0E−05 μM): 46.36%
Additive % Inhibition versus negative control ([1]; Compound 5 1.00E−06 μM): 22.68%
Additive % Inhibition versus negative control ([1]; Compound 5 3.16E−06 μM): 34.18%
Additive % Inhibition versus negative control ([1]; Compound 5 3.17E−05 μM): 56.34%

COCCCOc1cc2c(cc1OC)-c1cc(=O)c(C(=O)O)cn1[C@H](C(C)C)C2 [Compound 20]
serum HBsAg as percentage of pre-treatment baseline at Day 0 (mean ± SEM) (hepatitis B virus (HBV) [2]; D 7): 7 ± 1%
serum HBsAg as percentage of pre-treatment baseline at Day 0 (mean ± SEM) (hepatitis B virus (HBV) [2]; D 14): 8 ± 2%
serum HBsAg as percentage of pre-treatment baseline at Day 0 (mean ± SEM) (hepatitis B virus (HBV) [2]; D 21): 7 ± 2%
serum HBsAg as percentage of pre-treatment baseline at Day 0 (mean ± SEM) (hepatitis B virus (HBV) [2]; D 28): 8 ± 2%

polyinosinic:polycytidylic acid [Poly(I:C)]
Serum HBsAg, % of individual pre-treatment baseline (Day 0) (hepatitis B virus (HBV) [3]; Day 3, n=4 or 5): 6.1 ± 1.1%
Serum HBsAg, % of individual pre-treatment baseline (Day 0) (hepatitis B virus (HBV) [3]; Day 7): 3.5 ± 1.1%
Serum HBsAg, % of individual pre-treatment baseline (Day 0) (hepatitis B virus (HBV) [3]; Day 14): 3.9 ± 1.4%
Serum HBsAg, % of individual pre-treatment baseline (Day 0) (hepatitis B virus (HBV) [3]; Day 21): 4.7 ± 2.3%
